Data reported in patent US7423020B2, “Treatment of mood disorders by administration of SMR1” (Institut Pasteur, priority 2001, dated 2008).
Where a SMILES comes first, the peptide text is derived from it.

Key:
[1] = molecular target: T1, NEP (Rattus norvegicus, UniProt P07861); assay: Met-enkephalin degradation by rat spinal cord slices, RIA assay; type: biochemical; details: 10 μM; fresh spinal cord slices; 20 min at 25° C.; 10 μM Met-enkephalin
T1 construct: incubations of membrane and fresh tissue slice preparations from nervous tissues; from tissue; host or cells: rat spinal cord (dorsal zone), fresh slices or 100 000 x g membrane fraction
T1 sequence (P07861 1-750): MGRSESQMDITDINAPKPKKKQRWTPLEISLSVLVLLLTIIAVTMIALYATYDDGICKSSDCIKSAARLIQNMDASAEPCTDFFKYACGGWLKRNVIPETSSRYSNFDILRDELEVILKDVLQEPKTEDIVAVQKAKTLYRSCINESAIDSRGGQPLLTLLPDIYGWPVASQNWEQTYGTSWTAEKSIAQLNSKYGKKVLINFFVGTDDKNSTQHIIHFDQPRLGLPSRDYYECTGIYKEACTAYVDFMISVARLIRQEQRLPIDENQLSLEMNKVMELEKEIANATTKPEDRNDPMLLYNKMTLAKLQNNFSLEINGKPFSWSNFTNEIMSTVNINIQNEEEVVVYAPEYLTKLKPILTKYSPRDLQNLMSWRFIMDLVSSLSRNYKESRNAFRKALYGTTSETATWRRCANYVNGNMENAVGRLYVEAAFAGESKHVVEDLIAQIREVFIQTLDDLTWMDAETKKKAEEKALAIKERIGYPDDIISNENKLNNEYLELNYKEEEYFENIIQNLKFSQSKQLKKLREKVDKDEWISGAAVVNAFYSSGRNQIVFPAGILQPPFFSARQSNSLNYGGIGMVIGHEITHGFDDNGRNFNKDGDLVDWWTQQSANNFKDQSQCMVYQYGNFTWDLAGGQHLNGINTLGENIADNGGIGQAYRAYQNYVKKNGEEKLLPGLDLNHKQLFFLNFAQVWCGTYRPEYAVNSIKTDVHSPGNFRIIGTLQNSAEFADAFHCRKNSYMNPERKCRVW
Experimental: (§1) For the experiments of analysis of the NEP peptidase activity, an ex vivo model using incubations of membrane and fresh tissue slice preparations from nervous tissues that are known to be appropriate for exploring NEP peptidase activity: i.e. the dorsal zone of rat spinal cord, was first developed. […] (NEN, 12.5-25 nM) were used.
(§2) The objective was to measure the NEP-specific endoproteolysis of these substrates.

[2] = molecular target: T1, NEP; assay: 3H-Substance P hydrolysis by rat spinal cord slices; type: biochemical; details: 25° C., over 30 min incubation, read-out: inhibition of Substance P degradation
Experimental: as §1, §2
The C-18 Sep-Pak cartridges (Waters) were used to analyze the hydrolysis of the radiolabeled peptides: they separate compounds according to their differences in polarity. This solid-phase extraction procedure allows isolating the substrate from its metabolites, since the hydrophobic character of the peptide metabolites is reduced or even lost compared to the intact peptide substrate.
The radioactivity of eluted and isolated compounds is determined by liquid scintillation spectrometry.

[3] = tested on: male Wistar/AF EOPS rats; assay: Behavioral despair test (forced swimming); type: in vivo, rat
Experimental: Forty male Wistar/AF EOPS rats (Iffa-Credo Breeding Centre, 69-St-Germain sur l'Arbresle, France), weighing 300 to 320 g, were used. On arrival, the rats were labelled and distributed randomly in pairs into type F polycarbonate cages (48×27×20 cm, U.A.R., 91-Epinay-Sur-Orge, France). The animals were stabled in an air-conditioned animal house, at a temperature of 22-24° C. The rats were given food (M25 croquettes, Ets Pietrement, 77-Provins, France) and drink ad libitum and were subjected to a 12-hour light-darkness cycle.
After one week of familiarization with the laboratory conditions, the rats were weighed and distributed randomly into 3 treatment groups (n=12). The rats of the different groups will all be handled in the same way and under the same conditions.
The behavioral despair test takes place over two sessions: • a 15-minute test session; • a 5-minute retest session, performed 24 hours later.
During the test session, the rat was subjected to forced swimming in a Plexiglas cylinder (20 cm in diameter and 50 cm in height, containing 25 cm of water at 25° C.) and its behavior was recorded over 15 minutes. At the end of the test, the rat was removed from the water, dried gently, treated and then returned to its dwelling cage.
During the retest, 24 hours later, the rat was again placed in the water and its behavior was recorded over 5 minutes.
The recorded variables are the period of immobility during the first 5 minutes of both the test and the retest.
The peptide FG-005 (SMR1-QHNPR) (SEQ ID NO: 1) was suspended at a rate of 500 μg per 5 ml of 0.01N acetic acid, and then diluted with PBS to be administered at doses of 50 and 100 μg/kg via the i.v. route into the dorsal caudal vein of the rat, immediately after the test and 300 and 5 minutes before the retest the following day.
A bilateral probability paired t test was used to compare the two periods of immobility of the test with those of the retest in each of the groups. The results are expressed as an average ±standard error of mean (SEM)(FIG. 4). The statistical and graphical processing was performed using Statview5 and DeltaGraph® Pro 3.5 software.

protection of Met-enkephalin from degradation (RIA) [1]: 96% | inhibition at 10 µM [2]: 75%
SMILES: N=C(N)NCCC[C@H](NC(=O)[C@@H]1CCCN1C(=O)[C@H](CC(N)=O)NC(=O)[C@H](Cc1c[nH]cn1)NC(=O)[C@@H](N)CCC(N)=O)C(=O)O [SMR1-QHNPR, QHNPR] (H-QHNPR-OH; N-terminus and C-terminus assumed)
overall effect in the behavioral despair test ([3]; FG-005 50 and 100 μg/kg i.v., 8-OH-DPAT as reference substance): antidepressant effect | change of period of immobility, retest compared with test ([3]; dose of 50 μg/kg): increase their period of immobility during the retest | change of period of immobility, retest compared with test ([3]; doses of 50 and 100 μg/kg, i.v., immediately after the test and 300 and 5 minutes before the retest): do not increase their periods of immobility during the retest
